From PMC8147781, “Discovery of Pyrrolidine-2,3-diones as Novel Inhibitors of P. aeruginosa PBP3” (Antibiotics, 2021)
Values after ≈ are worked out from the molar mass of the structure shown. Where two headings read alike, the source gives them in different places.

Legend:
[1] = tested on: K. pneumoniae clinical isolate; experiment: MIC broth microdilution, K. pneumoniae; type: cell-based; conditions: Klebsiella pneumoniae; Table S3
Procedure: (§1) MIC determination was performed via standard broth microdilution according to the Clinical & Laboratory Standards institute guidelines. Overnight colonies grown on BD-Columbia agar with 5% Sheep Blood (Becton Dickinson, Franklin Lakes, NJ, USA), were diluted in Mueller Hinton Broth 2 cation adjusted (MH+) medium (Thermo Fisher Scientific) to a concentration of 5 × 10^5 CFU/mL. Serial dilutions (1:2) of test compounds were incubated at 37 °C with 5 × 10^4 bacteria in a final volume of 100 μL. Sterile and growth controls in the presence of 1% DMSO and PMBN if the case, and the positive controls, aztreonam (AZT) and tigecycline (TIG) were included in the experiments (Table S4). The MICs were determined visually after 18 h at 37 °C and confirmed by the addition of 10% PrestoBlue (ThermoFisher Scientific) reagent according to the manufacture’s protocol. The fluorescence signal of PrestoBlue reagent was measured at Ex/Em: 550/595 nm after 30 min incubation at 37 °C using at a ClarioStar microplate reader (BMG Labtech). PrestoBlue reduction occurs in the presence of living cells and consequently turns red in colour and is highly fluorescent.

E. coli Neumann = experiment: MIC broth microdilution, E. coli; type: cell-based; conditions: Escherichia coli; Table S3; read-out: MIC (µM) E. coli Neumann
Procedure: as §1

A. baumannii ATCC15308 = experiment: MIC broth microdilution, A. baumannii; type: cell-based; conditions: 10 µg/mL PMBN
Procedure: as §1

[2] = tested on: NRK-52E, epithelial kidney cell line; experiment: Cytotoxicity assay (PrestoBlue), NRK52E; conditions: CC50, 72 h
Procedure: (§2) We finally tested the cytotoxicity of the compounds against four eukaryotic cell lines (Table 2 and Table S5), NRK-52E, an epithelial kidney cell line of Rattus norvegicus; Hep G2, an human epithelial liver cell line; and two suspension cell lines: CCRF-CEM, a T lymphoblast; and H9, a cutaneous T lymphocyte cell line.
(§3) Cell lines stored at −120 °C were thawed to 37 °C and resuspended in 10 mL of medium pre-warmed to 37 °C. Cells were pelleted at 300× g for 10 min, and then resuspended in fresh medium, seeded in a T-75 culture flask, and placed in a CO2 incubator (37 °C with 5% CO2 tension). Once the cells reached approximately 70–80% confluency, they were then passaged regularly. The adherent cell lines NRK52E, HepG2 and Huh 7 were washed once with 10 mL DPBS and detached with Trypsin-EDTA for 5 to 7 min and resuspended in 15 mL of the appropriate medium. The suspension cell line CCRF-CEM were diluted and resuspended in fresh RPMI 1640 PAN medium. To calculate the cell density, the cell resuspensions were diluted 1:6 with DPBS. Equal volumes of cell suspension and Trypan Blue were mixed and gently loaded into a haemocytometer (INCYTO, 31056 Republic of Korea). In each experiment, cell concentrations were adjusted to reach a concentration of 2.5 × 10^3 cell/well for NRK52E, 5 × 10^3 cell/well for HepG2, 6.2 × 10^4 cell/well for CCRF-CEM and 3 × 10^3 for H9. The cells were incubated with decreasing concentration of compounds (1 µL in 96% DMSO) for 72 h at 37 °C with 5% CO2 tension. Cycloheximide, a cytotoxic compound that interferes with the translocation step in eukaryotic protein synthesis was used as a control for the experiments. The assay was carried out in flat-bottom, transparent 96-well plates. Cell viability was determined using the PrestoBlue reagent (Thermo Fisher Scientific, Waltham, MA, USA) according to the manufacture’s protocol. First, 10× PrestoBlue was added to each well to obtain a 1× solution, and incubated at 37 °C for 45 min. Then, fluorescence was measured at Ex/Em: 550/595 nm using a ClarioStar microplate reader (BMG Labtech). Cytotoxicity was determined as the percentage of the difference in absorbance of the untreated sample to the treated sample. CC50 was calculated using the values obtained in each concentration using the sigmoidal dose-response by Prism v.8. The media used in each cell line is detailed in Table S6.

S. aureus 133 = experiment: MIC broth microdilution, S. aureus; type: cell-based; conditions: Staphylococcus aureus, 133; Table S3
Procedure: as §1

[3] = tested on: Hep G2, epithelial liver cell line; experiment: Cytotoxicity assay (PrestoBlue), HepG2; conditions: CC50, 72 h
Procedure: as §2, §3

S. pneumoniae = experiment: MIC broth microdilution, S. pneumoniae; type: cell-based; conditions: Streptococcus pneumoniae, read-out: MIC (µM) S. pneumoniae
Procedure: as §1

B. subtilis 168 = experiment: MIC broth microdilution, B. subtilis; type: cell-based; conditions: Bacillus subtilis, 168; Table S3
Procedure: as §1

[4] = tested on: H9, cutaneous T lymphocyte cell line; experiment: Cytotoxicity assay (PrestoBlue), H9; conditions: CC50, 72 h
Procedure: as §2, §3

[5] = target: T1, PBP3 of P. aeruginosa (PaPBP3) (Pseudomonas aeruginosa, UniProt G3XD46); experiment: S2dfluo fluorescence transpeptidase assay; type: biochemical; conditions: 300 nM PaPBP3, 30 min preincubation, 37 °C; for IC50: read-out: IC50 Determination with PaPBP3, S2dfluo Assay
T1 construct: P. aeruginosa PBP3 (amino acids 40 to 563); His-tag; made in house; host or cells: E. coli BL21 (DE3) Rosetta, plasmid pET41_PBP-3
Procedure: The assays were carried out in the presence of 5% DMSO and 0.01% Triton X100 to avoid the formation of colloidal structures and adsorption of protein and/or compounds to surfaces. The Z’-factor determined for the assay was 0.73 ± 0.28, indicating the suitability and robustness of the assay for high throughput screening (HTS) (Figure 1B,C).
The activity of soluble ^PaPBP3 (300 nM) was measured in the presence of 0.8 mM S2d, 1 mM D-alanine and 0.5 mM mBBr for 25 min by monitoring the increase in the fluorescence intensity of mBBr at Ex/Em: 394/490 nm using an Infinite M1000 microplate reader (Tecan, Männedorf, Switzerland). To test the effect of inhibitors, 100 µM or 0.8 to 100 µM of compounds diluted in 96% DMSO were incubated for 30 min and 450 rpm with 300 nM soluble PBP3. The incubation period was set to improve the binding of non-covalent inhibitors and 0.01% Triton X100 (Sigma-Aldrich, Taufkirchen, Germany) was added to prevent aggregation of compounds. The enzyme reaction was started by adding a substrate mix of 0.8 mM S2d and […]. The enzyme, compound and substrate mix were mixed 1:1, pipetted with a Liquidator 96 (Melter Toledo, Gießen, Germany) and the fluorescence intensity was directly monitored with an Infinite M1000 microplate reader (Tecan) at Ex/Em: 394/490 nm. The assay was performed in black, flat-bottom 96-well microplates (Greiner Bio-One, Kremsmünster, Austria) at 37 °C in Sorensen Phosphate Buffer (57 mM Na2HPO4 and 10 mM KH2PO4, pH 7.5 + 0.01% Triton X-100). The velocity of the PBP3 reaction was calculated in the presence of each concentration of compound and the velocity values were used to estimate IC50 by sigmoidal nonlinear regression, using Prism v.9 software (San Diego, CA, USA) and the velocity of the reaction at each concentration.

T1 sequence (G3XD46 40-563): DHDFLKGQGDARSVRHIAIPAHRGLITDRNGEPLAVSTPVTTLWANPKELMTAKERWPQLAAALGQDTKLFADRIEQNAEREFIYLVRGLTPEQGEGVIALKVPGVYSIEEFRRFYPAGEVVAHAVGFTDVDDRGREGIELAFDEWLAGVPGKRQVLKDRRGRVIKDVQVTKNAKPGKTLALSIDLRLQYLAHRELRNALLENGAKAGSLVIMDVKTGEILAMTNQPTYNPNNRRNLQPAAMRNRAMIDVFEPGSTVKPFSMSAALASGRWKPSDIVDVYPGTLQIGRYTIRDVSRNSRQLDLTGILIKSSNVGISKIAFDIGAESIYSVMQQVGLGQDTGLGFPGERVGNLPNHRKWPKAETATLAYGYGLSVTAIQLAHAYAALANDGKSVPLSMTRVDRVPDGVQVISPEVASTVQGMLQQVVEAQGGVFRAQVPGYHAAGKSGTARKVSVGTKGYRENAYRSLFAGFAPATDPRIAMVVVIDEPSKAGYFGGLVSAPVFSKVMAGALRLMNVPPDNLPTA

Structure (SMILES)	MIC [1]	MIC (E. coli Neumann)	MIC (µM) A. baumanii ATCC15308 (A. baumannii ATCC15308)	Cytotoxicity effect (µM) Epithelial kidney NRK52E [2]	MIC (S. aureus 133)	Cytotoxicity effect (µM) Epithelial liver HepG2 [3]	MIC (S. pneumoniae)	MIC (B. subtilis 168)	Cytotoxicity effect (µM) T-lymphocyte H9 [4]	IC50 [5]	MIC (S. pneumoniae; Table S3)	IC50 Determination with PaPBP3, S2dfluo Assay [5]
O=C(C1=C(O)C(=O)N(Cc2cc3ccccc3[nH]2)C1c1ccc(Cl)cc1)c1ccc(Br)cc1 (stereo not shown) [Compound 34, 4-(4-bromobenzoyl)-5-(4-chlorophenyl)-3-hydroxy-1-(1H-indol-2-ylmethyl)-5H-pyrrol-2-one]	> 100 µM	> 100 µM	> 100 µM	> 100 µM	6.25 µM (≈ 3.26 µg/mL)	> 100 µM	12.5 µM (≈ 6.52 µg/mL)	25 µM (≈ 13 µg/mL)	> 100 µM	14 ± 9 µM	–	–
O=C(C1=C(O)C(=O)N(CCc2c[nH]c3ccccc23)C1c1ccc(Cl)cc1)c1ccc(Br)cc1 (stereo not shown) [Compound 40]	> 100 µM	> 100 µM	> 100 µM	> 100 µM	> 100 µM	> 100 µM	–	> 100 µM	> 100 µM	8 ± 4 µM	12.5 µM (≈ 6.7 µg/mL)	–
O=C(C1=C(O)C(=O)N(Cc2nc3ccccc3[nH]2)C1c1ccc(Cl)cc1)c1ccc(Br)cc1 (stereo not shown) [Compound 38]	> 100 µM	> 100 µM	> 100 µM	> 100 µM	> 100 µM	> 100 µM	–	> 100 µM	> 100 µM	100 ± 11 µM	25 µM (≈ 13.1 µg/mL)	drastic loss of the inhibitory activity
O=C(C1=C(N2CCOCC2)C(=O)N(Cc2cccc(F)c2)C1c1ccc(Cl)cc1)c1ccc(Br)cc1 (stereo not shown) [Compound 44, 4-(4-bromobenzoyl)-5-(4-chlorophenyl)-1-[(3-fluorophenyl)methyl]-3-(morpholin-4-yl)-5H-pyrrol-2-one]	> 100 µM	> 100 µM	> 100 µM	52 ± 3 µM	> 100 µM	> 100 µM	–	> 100 µM	> 100 µM	> 100 µM	> 100 µM	–
O=C(C1=C(O)C(=O)N(Cc2ccco2)C1c1ccc(Cl)cc1)c1ccc(Br)cc1 (stereo not shown) [Compound 41, 4-(4-bromobenzoyl)-5-(4-chlorophenyl)-1-(furan-2-ylmethyl)-3-hydroxy-5H-pyrrol-2-one]	> 100 µM	> 100 µM	> 100 µM	> 100 µM	> 100 µM	> 100 µM	–	> 100 µM	> 100 µM	> 100 µM	50 µM (≈ 23.6 µg/mL)	abolished the inhibitory activity
